Experimental data: patent US10189782B2, “Derivatives of indole for the treatment of cancer, viral infections and lung diseases” (BIOKINESIS, priority 2012, dated 2019)
Structures can show the parent of a compound that is named as a salt. Where two headings read alike, the source gives them in different places.

Tests used:
[1] = tested on: K562 cells; assay: Cytotoxicity on human cancer cells (WST-1), K562; assay type: cell-based; conditions: WST-1 on D4, read-out: K562 IC50
Procedure: Evaluation of Cytotoxicity Effects on Human Cancer Cells
The effects of the compounds of the invention on the viability of human cancer cells were studied on various human cancer cell lines of differing tissue origins (A549, NCI-H460: lung cancer; MDA-MB-231: breast cancer; HCT-116, HT-29: colon cancer; MIA-PaCa-2: pancreatic cancer; K562: leukaemia). All cell lines were obtained from ATCC or ECACC. Cells were cultured in the culture media described below, under a 37° C., 5% CO2 humidified atmosphere, according to a standard operating procedure.
On D0, the cells were plated in 90 μl in 96 wells plates at densities ranging from 500 to 5,000 cells per well.
Following addition of the test substance the cells were protected from light. The solvents (DMSO and specific control solvent were added at the maximal concentration: 10 μl/well (3 wells/condition)).
On D4, the Cell Proliferation Reagent WST-1 was added to each well (10 μl/well), according to a standard operating procedure. The cells were then incubated for 30 min to 4 h at 37° C.-5% CO2. After these incubations, the 96-well plates were shaken thoroughly for 1 min with Multiskan® EX apparatus (Thermo Labsystems, France). The absorbence was measured at 450 nm, the reference wavelength being 620 nm. The analysis of the results was performed with the Ascent software 2.6 (Thermo Labsystems, France), Microsoft Excel 2003 and GraphPad Prism 4.03 softwares to give the concentration of the compounds that induces the death of 50% of the cells (IC50).

[2] = biological target: T1, Human recombinant MKlp2 motor domain1-519, His tagged (Homo sapiens, UniProt O95235); assay: Microtubule stimulated ATPase activity of the MKlp2 motor domain (Kinesin ELIPA Assay Kit); assay type: biochemical; conditions: read-out: MKIp2 IC50
T1 construct: Human recombinant MKlp2 motor domain1-519, His tagged; His; purchased Cytoskeleton MP05
T1 sequence (O95235 1-519): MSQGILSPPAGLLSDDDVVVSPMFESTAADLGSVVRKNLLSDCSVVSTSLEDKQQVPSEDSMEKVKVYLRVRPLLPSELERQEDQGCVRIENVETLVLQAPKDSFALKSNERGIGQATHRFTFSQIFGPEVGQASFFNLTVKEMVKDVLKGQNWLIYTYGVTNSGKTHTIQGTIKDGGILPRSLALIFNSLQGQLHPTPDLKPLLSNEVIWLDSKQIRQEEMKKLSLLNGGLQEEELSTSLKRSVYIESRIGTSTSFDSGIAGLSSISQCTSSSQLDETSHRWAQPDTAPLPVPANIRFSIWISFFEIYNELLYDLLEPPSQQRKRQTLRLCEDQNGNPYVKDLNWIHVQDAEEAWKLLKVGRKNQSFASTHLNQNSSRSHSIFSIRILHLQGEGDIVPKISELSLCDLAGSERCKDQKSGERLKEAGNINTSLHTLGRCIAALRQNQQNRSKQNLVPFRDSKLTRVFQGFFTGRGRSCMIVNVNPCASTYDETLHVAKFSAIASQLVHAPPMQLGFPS
Procedure: Evaluation of Inhibitory Effects on the Microtubule Stimulated ATPase Activity of the MKlp2 Motor Domain.
MKlp2 ATPase activity was measured by monitoring real time free phosphate generation using the Kinesin ELIPA Assay Kit. The assay is based upon an absorbance shift (330 nm-360 nm) that occurs when 2-amino-6-mercapto-7-methylpurine ribonucleoside (MESG) is catalytically converted to 2-amino-6-mercapto-7-methylpurine in the presence of inorganic phosphate (Pi). One molecule of Pi will yield one molecule of 2-amino-6-mercapto-7-methylpurine in an essentially irreversible reaction.
All experiments were performed at 22° C.
Condition 1, compound preparation.
The compounds were dissolved in DMSO at 30× the maximum concentration to be tested. […] DMSO solutions were pipetted directly into each well.
Condition 2, reaction's “motor mix”.
The following were mixed sequentially in the specified order at RT to obtain the “motor mix”.
20 mL: 15 mM Pipes-NaOH pH 7.0, 10 mM MgCl2, 30 μM Tx (Buffer 1).
10 mL: 5× MSEG (ELIPA 1 reagent, Cat. # BK051).
10 mL: 2.5 mg/mL porcine brain microtubules (3×10 mg Cat. # MT002-XL resuspended in 12 mL of Buffer 1).
0.5 mL: 100×PNP (ELIPA 2 reagent, cat. # BK051).
Condition 3, reaction initiation.
The motor mix was pipetted into each well to obtain 80% of total volume. The reaction was initiated by adding a 20% of total volume of 5 mM ATP into each well.
The reactions were measured in a SpectraMax M2 (Molecular Devices) set in kinetic mode and 360 nm absorbance wavelength. The start protocol was 5 second rapid circular mixing, 21 readings, 30 seconds apart.

[3] = Table 6 (prodrugs, formula II), K562 cells

Compound | IC50 ([2]; Table 3, 22° C.) [nM] | IC50 ([2]; Table 6 (prodrugs, formula II)) [nM] | IC50 ([1]; Table 4, K562 leukaemia cells) [nM] | IC50 [1, 3] [nM]
COc1ccc2c(/C(C#N)=C/c3cc(C#N)ccc3OC)c[nH]c2c1 [Example 54, (Z)-3-(2-cyano-2-(6-methoxy-1H-indol-3-yl)vinyl)-4-methoxybenzonitrile] | 1400 | – | 20 | –
COc1ccncc1/C=C(\C#N)c1cn(C(C)=O)c2ccc(Br)cc12 [Example 55, (Z)-2-(1-acetyl-5-bromo-1H-indol-3-yl)-3-(4-methoxypyridin-3-yl)acrylonitrile] | – | 13700 | – | 550
COc1ccncc1/C=C(\C#N)c1cn(C(=O)C(C)(C)C)c2ccc(Br)cc12 [Example 57, (Z)-2-(5-bromo-1-pivaloyl-1H-indol-3-yl)-3-(4-methoxypyridin-3-yl)acrylonitrile] | – | 20000 | – | 200
COc1ccc(C#N)cc1/C=C(\C#N)c1cn(C(=O)OC(C)(C)C)c2ccc(Br)cc12 [Example 64, (Z)-tert-butyl 5-bromo-3-(1-cyano-2-(5-cyano-2-methoxyphenyl)vinyl)-1H-indole-1-carboxylate] | – | 19600 | – | 240
COCCOCCOCC(=O)n1cc(/C(C#N)=C/c2cc(C#N)ccc2OC)c2cc(Br)ccc21 [Example 73, (Z)-3-(2-(5-bromo-1-(2-(2-(2-methoxyethoxy)ethoxy)acetyl)-1H-indol-3-yl)-2-cyanovinyl)-4-methoxybenzonitrile] | – | > 50000 | – | 30
COc1ccc(C#N)cc1/C=C(\C#N)c1cn(C(=O)C2CCC(=O)N2)c2ccc(Br)cc12 (centres unmarked) [Example 75, (Z)-3-(2-(5-bromo-1-(5-oxopyrrolidine-2-carbonyl)-1H-indol-3-yl)-2-cyanovinyl)-4-methoxybenzonitrile] | – | 4600 | – | 20

Further lines, with some results ahead:

IC50 ([2]; Table 3, 22° C.) [nM] | IC50 ([2]; Table 6 (prodrugs, formula II)) [nM] | Compound | IC50 ([1]; Table 4, K562 leukaemia cells) [nM] | IC50 [1, 3] [nM]
– | 16700 | COc1ccc(C#N)cc1/C=C(\C#N)c1cn(C(C)=O)c2ccc(Br)cc12 [Example 56, (Z)-3-(2-(1-acetyl-5-bromo-1H-indol-3-yl)-2-cyanovinyl)-4-methoxybenzonitrile] | – | 250
– | 7500 | COc1ccc(C#N)cc1/C=C(\C#N)c1cn(C(=O)C(C)(C)C)c2ccc(Br)cc12 [Example 58, (Z)-3-(2-(5-bromo-1-pivaloyl-1H-indol-3-yl)-2-cyanovinyl)-4-methoxybenzonitrile] | – | 60
– | > 50000 | COc1ccc(C#N)cc1/C=C(\C#N)c1cn(C(=O)CN2CCN(C)CC2)c2ccc(Br)cc12 [Example 68, (Z)-3-(2-(5-bromo-1-(2-(4-methylpiperazin-1-yl)acetyl)-1H-indol-3-yl)-2-cyanovinyl)-4-methoxybenzonitrile] | – | 30
– | > 50000 | COc1ccc(C#N)cc1/C=C(\C#N)c1cn(C(=O)C[C@H](C)N)c2ccc(Br)cc12 [Example 70, (S,Z)-3-(2-(1-(3-aminobutanoyl)-5-bromo-1H-indol-3-yl)-2-cyanovinyl)-4-methoxybenzonitrile hydrochloride] | – | 10
– | 1900 | COc1ccc(C#N)cc1/C=C(\C#N)c1cn(C(=O)CN)c2ccc(Br)cc12 [Example 71, (Z)-3-(2-(1-(2-aminoacetyl)-5-bromo-1H-indol-3-yl)-2-cyanovinyl)-4-methoxybenzonitrile hydrochloride] | – | 10
– | > 50000 | COc1ccc(C#N)cc1/C=C(\C#N)c1cn(C(=O)CN2CCNCC2)c2ccc(Br)cc12 [Example 72, (Z)-3-(2-(5-bromo-1-(2-(piperazin-1-yl)acetyl)-1H-indol-3-yl)-2-cyanovinyl)-4-methoxybenzonitrile Hydrochloride] | – | 10
– | 2100 | COc1ccc(C#N)cc1/C=C(\C#N)c1cn(C(=O)[C@@H](N)CO)c2ccc(Br)cc12 [Example 74, (S,Z)-3-(2-(1-(2-amino-3-hydroxypropanoyl)-5-bromo-1H-indol-3-yl)-2-cyanovinyl)-4-methoxybenzonitrile hydrochloride] | – | 10
